Assay results taken from patent US12246005B2, “5-methoxy-n,n-dimethyltryptamine (5-MeO-DMT) formulations” (Beckley Psytech Limited, priority 2023, dated 2025).
Entries after “also recorded” stand apart in the source; their conditions may differ. Counter-ions that a name gives are not always drawn.

What was measured:
[1] = Thermal decomposition properties of salt forms (TGA); assay type: physicochemical
Excerpt: The thermal decomposition properties of a range of salt forms of 5-MeO-DMT has been investigated and is summarised in the report below: […]

[2] = Phase 1 single ascending dose study of liquid intranasal 5-MeO-DMT HCl formulation; assay type: in vivo, human; details: liquid intranasal formulation, 5, 8, 10, 11 and 14 mg, healthy subjects
Excerpt: (§1) The applicant has funded double-blind, randomized, Phase 1, single ascending dose studies to evaluate the safety, tolerability and pharmacokinetic profile of intranasal 5-MeO-DMT hydrochloride and intranasal 5-MeO-DMT benzoate in healthy subjects. […] It is desirable that a compound for use in treatment has dose-proportional pharmacokinetics, for example, to facilitate dose and dose regimen adjustment in patients. In an embodiment, there is provided a salt of 5-MeO-DMT with dose-proportional pharmacokinetics, optionally for use in the methods disclosed herein. In an embodiment, the salt of 5-MeO-DMT with dose-proportional pharmacokinetics is the benzoate or HBr salt, optionally the benzoate salt. A double-blind, randomized, Phase 1, single ascending dose study to evaluate the safety, tolerability and pharmacokinetic profile of a liquid intranasal 5-MeO-DMT HCl (5-MeO-DMT HCl, HPMC, water for injection (WFI) and a sodium hydroxide solution to adjust pH) formulation in healthy subjects was performed.

[3] = Phase 1 single ascending dose study of intranasal 5-MeO-DMT benzoate (safety, tolerability, pharmacokinetics); assay type: in vivo, human
Excerpt: as §1
A double-blind, randomized, Phase 1, single ascending dose study to evaluate the safety, tolerability and pharmacokinetic profile of intranasal 5-MeO-DMT benzoate in healthy subjects was performed.

Irritation tolerability = details: in particular when compared to the chloride salt
[4] = Solubility studies of lyophilised amorphous form (dissolution rate); assay type: physicochemical
Excerpt: Amorphous 5-MeO-DMT salt formulations have been produced via lyophilisation processes. It is noted that in some cases these have low glass transition temperatures. Conversion to a crystalline form may therefore occur, perhaps rapidly.

[5] = Previous preclinical work in dogs defining maximum exposure limits; details: dog, in vivo
Hygroscopicity = assay type: physicochemical
Excerpt: In an embodiment, the formulation is non-hygroscopic. […] Hygroscopicity is the phenomenon of attracting and holding water molecules via either adsorption or absorption from the surrounding environment. Pharmaceuticals that pick up less than 0.2% moisture at 80% RH are considered non hygroscopic. […] Pharmaceuticals that pick up more than 15.0% moisture at 80% RH are considered very hygroscopic. Hygroscopic substances are difficult to handle and costly and burdensome measures must be taken in order to ensure they are not exposed to moisture during process and formulation. Exposed to moisture, hygroscopic substances can take on water and convert to a hydrous form. This presents several disadvantages. First, the hydrous forms may have the disadvantage of being less bioavailable and less dissoluble than the anhydrous forms. Second, the variation in the amount of hydrous versus anhydrous substance from batch to batch could fail to meet specifications set by drug regulatory agencies. […] Fourth, in addition to problems caused by introduction of moisture during the processing of these hygroscopic substances, the potential for absorbance of moisture during storage and handling would adversely affect the dissolubility of the drug substance.

[6] = at 20° C. water; cited from earlier work

5-MeO-DMT glycolate
TGA Guidance: decomposition temperature [1]: Melt 95° C., gross dcomp starts 170 °C

5-MeO-DMT malate
TGA Guidance: decomposition temperature [1]: Melt 100° C, gross dcomp starts 250 °C

5-MeO-DMT tartrate
TGA Guidance: decomposition temperature [1]: Melt ~140° C., decomp ~200 °C

COc1ccc2[nH]cc(CCN(C)C)c2c1.Cl [5-MeO-DMT HCl, 5-MeO-DMT hydrochloride]
dose proportionality of pharmacokinetics [2]: does not display dose-proportional pharmacokinetics

COc1ccc2[nH]cc(CCN(C)C)c2c1.O=C(O)c1ccccc1 [5-MeO-DMT benzoate]
TGA Guidance: decomposition temperature [1]: ~220 °C
TGA Guidance: mass loss [1]: full mass loss
dose proportionality of pharmacokinetics ([3]; intranasal single ascending dose, healthy subjects): exhibits dose-proportional pharmacokinetics; also recorded: approximately dose linear
mean Cmax ([3]; intranasal, 12 mg dosage, healthy subjects, plasma 5-MeO-DMT): 29 ng/mL
mean Tmax ([3]; intranasal, healthy subjects): 9.5 min
mean half-life (T1/2) ([3]; intranasal, healthy subjects): 21 min
irritation tolerability (Irritation tolerability): good irritation tolerability
dissolution rate [4]: almost instantaneous dissolution rate

COc1ccc2[nH]cc(CCN(C)C)c2c1.O=S(=O)(O)c1ccccc1 [Benzenesulfonate, 5-MeO-DMT benzenesulfonate]
TGA Guidance: decomposition temperature [1]: Melt 76° C., gross dcomp starts 280 °C

CN(C)CCc1c[nH]c2ccc(O)cc12 [Bufotenin]
detection of metabolite in plasma ([3]; after intranasal 5-MeO-DMT benzoate, 6 mg dose level, after the 16 minutes timepoint): only detected at very low levels

COc1ccc2[nH]cc(CCN(C)C)c2c1 [Example 5-MeO-DMT, 5-methoxy-N,N-dimethyltryptamine]
AUC ([5]; read-out: maximum exposure limit AUC): 220 ng·h/mL
Cmax ([5]; read-out: maximum exposure limit Cmax): 421 ng/mL

COc1ccc2[nH]cc(CCN(C)C)c2c1 [Fumarate, 5-MeO-DMT fumarate]
TGA Guidance: decomposition temperature [1]: Decomp around 200 °C

Br.COc1ccc2[nH]cc(CCN(C)C)c2c1 [Hydrobromide, 5-MeO-DMT hydrobromide]
TGA Guidance: decomposition temperature [1]: Melt 149° C., gross dcomp starts 220 °C
hygroscopicity (Hygroscopicity): non-hygroscopic

COc1ccc2[nH]cc(CCN(C)C)c2c1 [Ketoglutarate, 5-MeO-DMT ketoglutarate]
TGA Guidance: decomposition temperature [1]: Melt 85° C., gross dcomp starts 170 °C

COc1ccc2[nH]cc(CCN(C)C)c2c1.O=C(O)C(=O)O [Oxalate, 5-MeO-DMT oxalate]
TGA Guidance: mass loss [1]: Melts 176° C., full mass loss

COc1ccc2[nH]cc(CCN(C)C)c2c1 [Phosphate, 5-MeO-DMT phosphate]
TGA Guidance: decomposition temperature [1]: Decomp around 200 °C

COc1ccc2[nH]cc(CCN(C)C)c2c1 [Saccharinate, 5-MeO-DMT saccharinate]
TGA Guidance: decomposition temperature [1]: Melt 80° C., gross dcomp starts 180 °C

COc1ccc2[nH]cc(CCN(C)C)c2c1 [Tosylate, 5-MeO-DMT tosylate]
TGA Guidance: decomposition temperature [1]: Melt 110° C, gross dcomp starts 280 °C ° C.

isomalt
Solubility [6]: 42 g/100 g solution
